| melting point | Structure (SMILES) |
| --- | --- |
| 115 to 118 °C | CCC(CC)Nc1cc(C)nn2c(-c3ccc(Cl)cc3Cl)c(C)cc12 [Example 1, 7-(2,4-dichlorophenyl)-N-(1-ethylpropyl)-2,6-dimethylpyrrolo[1,2-b]pyridazin-4-amine] |
| 154 to 155 °C | COCC(COC)Nc1cc(C)nn2c(-c3ccc(Cl)cc3Cl)c(C)cc12 [Example 2, 7-(2,4-dichlorophenyl)-N-[2-methoxy-1-(methoxymethyl)ethyl]-2,6-dimethylpyrrolo[1,2-b]pyridazin-4-amine] |
